Data on 7 compounds can be found in patent US20040002505A1, “Medicinal compositions for cocominant use as anticancer agent” (priority 2000, published 2004).

Counter-ions that a name gives are not always drawn. Like-named read-outs stand apart in the source and are kept apart here.

Data set [1] concerns Human colon cancer strain Colo320D.M. Put plainly: Combined use of E7070 and 5-FU in human colon cancer Colo320D.M. xenograft model. To be noted: alone or simultaneous; for Toxicity Dead/Treated: E7070 30 mg/kg/day day 1-5, 5-FU 60 mg/kg/day day 1, 5, 9. From the text: (§1) Cancer Chemother Pharmacol. 1992;30(1):25-30; (ii)Enhancement of vincristine cytotoxicity in drug-resistant cells by simultaneous treatment with onconase, an antitumor ribonuclease. J Natl Cancer Inst. 1996 June 5;88(11):747-53; (iii)Effects of growth hormone and testosterone on cortical bone formation and bone density in aged orchiectomized rats. Bone. 1999 May;24(5):491-7).
(In general: Xenograft models place foreign cells or tissue in a host animal.)

In data set [2] the test system is Human colon cancer strain HCT15. To be noted: alone or in combination; for Toxicity Dead/Treated: E7070 30 mg/kg/day QDx5, CPT-11 75 mg/kg/day Q4Dx3; for Tx4 (days) mean ± S.D.: HCT15 xenograft, nude mice, iv, E7070 30 mg/kg/day QDx5 (day 1-5), CPT-11 75 mg/kg/day Q4Dx3 (day 1, 5, 9).
Text: as §1

Data set [3] concerns Human colon cancer strain SW620. To be noted: E7070 25 mg/kg/day day 1-5, CPT-11 62.5 mg/kg/day day 1, 5, 9, alone or simultaneous.
Text: as §1

Data set [4] has as its system Human non-small cell lung cancer LU-99. To be noted: alone or simultaneous.
Text: as §1

In data set [5] the test system is Human colon cancer strain HCT15. Nature of the data set: Combined use of E7070 and MMC in human colon cancer HCT15 xenograft model. To be noted: alone or in combination; for Toxicity Dead/Treated: E7070 25 mg/kg/day QDx5, MMC 4.19 mg/kg/day QDx1; for Tx4 (days) mean ± S.D.: HCT15 xenograft, nude mice, iv, E7070 25 mg/kg/day QDx5 (day 1-5; combination line prints 30 mg/kg/day), MMC 4.19 mg/kg/day QDx1 (day 1).
Text: as §1

For data set [6] the following is noted: used in combination with E7070; model and data not given.
In data set [7] the test system is Human colon cancer strain HCT15. Put plainly: Combined use of E7070 and Gemcitabine in human colon cancer HCT15 xenograft model. To be noted: used in combination with E7070; no data given. Format: in vivo, nude mouse.
Text: as §1

The mark [8] stands for this setting: E7070 25 mg/kg/day day 1-5, CDDP 7.5 mg/kg/day day 1.

Consider `O=c1[nH]cc(F)c(=O)[nH]1` [5-FU, 5-fluoro-2,4-(1H,3H)-pyrimidinedione], for which the “Tx4 (days) mean ± S.D.” value in data set [1] (Colo320D.M. xenograft, nude mice, iv, E7070 30 mg/kg/day QDx5 (day 1-5), 5-FU 60 mg/kg/day Q4Dx3 (day 1, 5, 9)) was determined as 10.0 ± 0.7 days. Also, the “Toxicity Dead/Treated” value in data set [1] was 0/6.

With `CCc1c2c(nc3ccc(OC(=O)N4CCC(N5CCCCC5)CC4)cc13)-c1cc3c(c(=O)n1C2)COC(=O)[C@]3(O)CC` [CPT-11, [1,4′-Bipiperidine]-1′-carboxylic acid (S)-4,11-diethyl-3,4,12,14-tetrahydro-4-hydroxy-3,14-dioxo-1H-pyrano-[3′,4′:6,7]-indolizino[1,2-b]quinolin-9-yl ester Hydrochloride trihydrate], the “Toxicity Dead/Treated” value in data set [2] and in data set [3] was 0/6 in each case. Moreover, the “Tx4 (days) mean ± S.D.” value in data set [2] came to 17.8 ± 1.0 days.

Consider `NS(=O)(=O)c1ccc(S(=O)(=O)Nc2cccc3c(Cl)c[nH]c23)cc1` [E7070, N-(3-chloro-1H-indol-7-yl)-4-sulfamoylbenzenesulfonamide], for which the “Toxicity Dead/Treated” value in data set [2], in data set [4] (setting [8]), in data set [3], in data set [5] and in data set [1] was 0/6 each time. The results for the “Tx4 (days) mean ± S.D.” value in data set [2] and in data set [5] were 18.7 ± 2.0 days and 12.7 ± 2.2 days, respectively. In addition, the “mRTV mean ± S.D.” value in data set [4] (minimum relative tumor volume, E7070 25 mg/kg/day day 1-5, CDDP 7.5 mg/kg/day day 1) was 0.75 ± 0.16; in data set [3] (minimum relative tumor volume, day of minimum in parentheses in the cell) it was 0.76 ± 0.42(12).

On to `CO[C@@]12[C@H](COC(N)=O)C3=C(C(=O)C(C)=C(N)C3=O)N1C[C@@H]1N[C@@H]12` [MMC, [1aS-(1aα,8β,8aα,8bα)]-6-amino-8-[[(aminocarbonyl)oxy]methyl]1,1a,2,8,8a,8b-hexahydro-8a-methoxy-5-methylazirino[2′,3′:3,4]pyrrolo[1,2-a]indole-4,7-dione], for which, in data set [5], the “Toxicity Dead/Treated” value is reported as 0/6 and the “Tx4 (days) mean ± S.D.” value stood at 16.2 ± 3.4 days.

`COc1cccc2c1C(=O)c1c(O)c3c(c(O)c1C2=O)C[C@@](O)(C(=O)CO)C[C@@H]3O[C@H]1C[C@H](N)[C@H](O)[C@H](C)O1` [doxorubicin, 10-[(3-amino-2,3,6-trideoxy-α-L-lyxo-hexopyranosyl)oxy]-7,8,9,10-tetrahydro-6,8,11-trihydroxy-8-(hydroxyacetyl)-1-methoxy-(8S-cis)-5,12-naphthacenedione]: in data set [6], the “synergistic effect, antitumor activity” value is reported as “excellent antitumor activity”.

As for `Cl.Nc1ccn([C@@H]2O[C@H](CO)[C@@H](O)C2(F)F)c(=O)n1` [gemcitabine hydrochloride, 2′-deoxy-2′,2′-difluoro-cytidine hydrochloride], the “synergistic effect, antitumor activity” value in data set [7] is “excellent antitumor activity”.

Regarding cis-diamminedichloroplatinum [CDDP], the “Toxicity Dead/Treated” value in data set [4] (setting [8]) is on record as 0/6. In addition, the “Tx4 (days) mean ± S.D.” value in data set [4] (LU-99 xenograft, nude mice, iv, E7070 25 mg/kg/day QDx5 (day 1-5), CDDP 7.5 mg/kg/day QDx1 (day 1)) came out at 10.7 ± 0.5 days. Besides, the “Toxicity mRBW mean” value in data set [4] (minimum relative body weight, day of minimum in parentheses in the cell, E7070 25 mg/kg/day day 1-5, CDDP 7.5 mg/kg/day day 1) is 0.95(5).
